{"source": "patent US20080254003A1", "about": "“Differentiation of Human Embryonic Stem Cells and Cardiomyocytes and Cardiomyocyte Progenitors Derived Therefrom” (priority 2004, published 2008)", "tested_on": "HESC (hES2) co-cultured with END-2 cells", "assay": "HESC-END-2 co-culture, scoring of beating areas", "assay_type": "cell-based, human", "conditions": "10^−4 M ascorbic acid, serum-free HESC-END-2 co-culture, day 12, 12-well plates, n=6", "experimental": "END-2 cells and HESC lines hES2, hES3 and hES4 cells (passage number between 41-84) were cultured as described previously in Reubinoff B E, Pera M F, Fong C Y et al. Embryonic stem cell lines from human blastocysts: somatic differentiation in vitro. Nat Biotechnol 2000; 18:399-404 and Mummery C, Ward-van Oostwaard D, Doevendans P et al. Differentiation of human embryonic stem cells to cardiomyocytes: role of coculture with visceral endoderm-like cells. Circulation 2003; 107:2733-2740. To initiate co-cultures, END-2 cell cultures, treated for 3 hr with mitomycin C (mit.C; 10 μg/ml), replaced mouse embryonic fibroblasts (MEFs) as feeders for hES cells (Mummery et al (2003) and Mummery C L, van Achterberg T A, van den Eijnden-van Raaij A J et al. Visceral-endoderm-like cell lines induce differentiation of murine P19 embryonal carcinoma cells. Differentiation 1991; 46:51-60). As a control HESC were also grown on MEFs for the same period under the same culture conditions. In standard co-cultures, cells were grown in 12-well plates in DMEM containing L-glutamine, insulin-transferrin-selenium, non-essential amino acids, 90 μM β-mercaptoethanol, penicillin/streptomycin, and 20% FCS (Multicell, Wisent Inc, Canada). Co-cultures were then grown for up to 3 weeks and scored for the presence of areas of beating muscle from 5 days onwards. […]"}
{"smiles": "O=C1O[C@H]([C@@H](O)CO)C(O)=C1O", "note": "[ascorbic acid]", "values": [{"measurement": "increase in the number of beating areas compared to untreated serum-free co-cultures", "result": 40, "unit": "%"}]}
